Measured values from ChEMBL document CHEMBL1126999, “Anticonvulsant sugar sulfamates. Potent cyclic sulfate and cyclic sulfite analogues of topiramate” (Bioorg Med Chem Lett, 1993).

Columns and labels:
Mus musculus [1] = test: Tested for anticonvulsant activity against mice at 4 hr at a peroral dose of 10 mg/Kg by maximal electroshock seizure (MES) test; format: functional
Mus musculus [2] = test: Tested for anticonvulsant activity against mice at 4 hr at a peroral dose of 1 mg/Kg by maximal electroshock seizure (MES) test; format: functional
Mus musculus [3] = test: Tested for anticonvulsant activity against mice at 4 hr at a peroral dose of 75 mg/Kg by maximal electroshock seizure (MES) test; format: functional
Mus musculus [4] = test: Tested for anticonvulsant activity against mice at 4 hr at a peroral dose of 3 mg/Kg by maximal electroshock seizure (MES) test; format: functional
Mus musculus [5] = test: Tested for anticonvulsant activity against mice at 4 hr at a peroral dose of 35 mg/Kg by maximal electroshock seizure (MES) test; format: functional
Mus musculus [6] = test: Tested for effective dose required to produce anticonvulsant activity against mice at 4 hr (po); format: functional
Mus musculus [7] = test: Tested for anticonvulsant activity against mice at 4 hr at a peroral dose of 300 mg/Kg by maximal electroshock seizure (MES) test; format: functional
Mus musculus [8] = test: Tested for anticonvulsant activity against mice at 4 hr at a peroral dose of 200 mg/Kg by maximal electroshock seizure (MES) test; format: functional
Mus musculus [9] = test: Tested for effective dose required to produce anticonvulsant activity against mice at 16 hr (po); format: functional
[10] = Therapeutic index relative to neurotoxicity ([…]) was determined in the rotarod test.
Mus musculus [11] = test: Tested for anticonvulsant activity against mice at 4 hr at a peroral dose of 60 mg/Kg by maximal electroshock seizure (MES) test; format: functional
[12] = Mus musculus, po, 4 h, read-out: ED50

SMILES	Block (Mus musculus [1]) [%]	Block (Mus musculus [3]) [%]	ED50 (Mus musculus [6]; [12]) [mg/kg]	also measured
CC1(C)O[C@H]2[C@@H]3OS(=O)(=O)O[C@@H]3CO[C@@]2(COS(=O)(=O)NC2CCC2)O1	90			Block (Mus musculus [2]): 0%
CC1(C)O[C@H]2[C@@H]3OS(=O)(=O)O[C@@H]3CO[C@@]2(COS(=O)(=O)NC2CCCCCCC2)O1	0	30		
CCN(CC)S(=O)(=O)OC[C@@]12OC[C@H]3OS(=O)(=O)O[C@H]3[C@@H]1OC(C)(C)O2	10	100		
CCNS(=O)(=O)OC[C@@]12OC[C@H]3OS(=O)(=O)O[C@H]3[C@@H]1OC(C)(C)O2			14.4	Block (Mus musculus [4]): 0%; Block (Mus musculus [5]): 100%
CC1(C)O[C@H]2[C@@H]3OS(=O)(=O)O[C@@H]3CO[C@@]2(COS(=O)(=O)NCc2ccccc2)O1	0	100		
C=CCNS(=O)(=O)OC[C@@]12OC[C@H]3OS(=O)(=O)O[C@H]3[C@@H]1OC(C)(C)O2	70			Block (Mus musculus [2]): 0%
CCCCNS(=O)(=O)OC[C@@]12OC[C@H]3OS(=O)(=O)O[C@H]3[C@@H]1OC(C)(C)O2	30			Block (Mus musculus [5]): 100%
CNS(=O)(=O)OC[C@@]12OC[C@H]3OS(=O)(=O)O[C@H]3[C@@H]1OC(C)(C)O2	100		7.4	
CC1(C)O[C@H]2[C@@H]3OS(=O)(=O)O[C@@H]3CO[C@@]2(COS(=O)(=O)Nc2ccccc2)O1		0		Block (Mus musculus [7]): 0%
CCCCCCCCNS(=O)(=O)OC[C@@]12OC[C@H]3OS(=O)(=O)O[C@H]3[C@@H]1OC(C)(C)O2	0	100		
CC1(C)O[C@H]2[C@@H]3OS(=O)(=O)O[C@@H]3CO[C@@]2(COS(=O)(=O)NCC(F)(F)F)O1	40	90		
CN(C)S(=O)(=O)OC[C@@]12OC[C@H]3OS(=O)(=O)O[C@H]3[C@@H]1OC(C)(C)O2	70		6.9	Block (Mus musculus [5]): 100%
CC1(C)O[C@H]2[C@@H]3OS(=O)(=O)O[C@@H]3CO[C@@]2(COS(=O)(=O)NC2CC2)O1	90		7.3	Block (Mus musculus [2]): 0%
CNS(=O)(=O)OC[C@@]12OC[C@H]3OC(C)(C)O[C@H]3[C@@H]1OC(C)(C)O2		60		Block (Mus musculus [8]): 100%
CC1(C)O[C@H]2[C@@H]3OS(=O)(=O)O[C@@H]3CO[C@@]2(COS(N)(=O)=O)O1	80		6.3	ED50 (Mus musculus [9]): 41.5 mg/kg; selectivity ratio [10]: > 150
CN(C)S(=O)(=O)OC[C@@]12OC[C@H]3OC(C)(C)O[C@H]3[C@@H]1OC(C)(C)O2		0		Block (Mus musculus [8]): 80%
CC1(C)O[C@H]2[C@@H]3OS(=O)O[C@@H]3CO[C@@]2(COS(N)(=O)=O)O1 (stereo in doubt; 3a)	70		6.3	
CC1(C)O[C@H]2[C@@H]3OS(=O)O[C@@H]3CO[C@@]2(COS(N)(=O)=O)O1 (stereo in doubt; 3b)				ED50 (Mus musculus [6]): 6.5 mg/kg
O=C1NC(=O)C(c2ccccc2)(c2ccccc2)N1 [PHENYTOIN]			6.4	
CC1(C)O[C@@H]2[C@@H](CO[C@@]3(COS(N)(=O)=O)OC(C)(C)O[C@@H]23)O1 [TOPIRAMATE]				Block (Mus musculus [11]): 60%; ED50 (Mus musculus [9]): 720 mg/kg; ED50 (Mus musculus [6]): 53.5 mg/kg
